Measured values published in publication PMC8048383 (Cancer cell, 2021).

Assays:
[1] = system: platinum-resistant SCLC patients; conditions: second-line lurbinectedin; ref Trigo et al., 2020; cited from earlier work
[2] = system: SCLC cells; experiment: MIPE 5.0 library combination screen with indotecan, pairs ranked by ExcessHSA; format: cell-based, human; conditions: in combination with indotecan (LMP400)
[3] = system: TOP1 DNA-protein crosslinks (TOP1-DPCs) in DMS114 cells; experiment: in vivo complex of enzyme; format: cell-based, human
[4] = system: DMS114 and H209 SCLC cell models; experiment: replication; format: cell-based, human
[5] = system: DMS114 cells; experiment: flow cytometry EdU incorporation and cell cycle analysis; format: cell-based, human; conditions: M6620 with topotecan; forced progression to G2/M phase
[6] = system: replication protein A (RPA) S33 phosphorylation; experiment: Western blot of RPA phosphorylation; format: cell-based, human
[7] = system: pCHK1 (Ser345); experiment: pharmacodynamics of pCHK1; format: in vivo, mice; conditions: M6620 10, 20 and 30 mg/kg i.v. with 50 mg/kg irinotecan i.p.; 1-24 h
[8] = plasma pharmacokinetics in trial patients; format: in vivo, human; conditions: cycle 1, suggesting absence of drug-drug interactions
[9] = system: patients with platinum-resistant SCLC; conditions: topotecan monotherapy, ref Horita et al., 2015; cited from earlier work

Q: What does the source list for COc1ccc2[nH]c3c(c2c1)CCN[C@]31CS[C@@H]2c3c(OC(C)=O)c(C)c4c(c3[C@H](COC1=O)N1[C@@H]2[C@H]2c3c(cc(C)c(OC)c3O)C[C@@H]([C@@H]1O)N2C)OCO4 [lurbinectedin]?
A: confirmed ORR [1]: 22.2%; median DOR [1]: 4.7 months; patients with confirmed responses with DOR>6 months [1]: 11.7%

Q: For COc1cccc(OCCCN)c1-c1cc(Nc2cnc(C#N)cn2)n[nH]1 [prexasertib], which “rank of TOP1 inhibitor-drug pair by ExcessHSA” value [2] is on record?
A: 9

Q: Which “potentiation of topotecan-generated TOP1-DPCs” value ([3]; 1 μM pretreatment 4 h before topotecan 1 μM 2 h) does the source give for O=c1cc(-c2cccc3c2Sc2ccccc2S3)oc(N2CCOCC2)c1 [KU55933] here?
A: neither an ATM inhibitor (KU55933) nor a DNA-PKcs inhibitor (VS984) potentiated topotecan-generated TOP1-DPCs

Q: What does the source list for CNCc1ccc(-c2cc(-c3nc(-c4ccc(S(=O)(=O)C(C)C)cc4)cnc3N)on2)cc1 [M6620, berzosertib]?
A: rank of TOP1 inhibitor-drug pair by ExcessHSA [2]: 32; increase in TOP1-DPCs ([3]; M6620 pre-treatment (1 μM, 4 h), after 2-hour treatment with topotecan (1 μM)): 1.4 fold; topotecan-induced replication block ([4]; M6620 added to topotecan): abrogated the replication block; S-phase arrest induced by TOP1 inhibition [5]: abrogated the S-phase arrest induced by TOP1 inhibition; topotecan-induced RPA32 phosphorylation ([6]; M6620 treatment): reduced the topotecan-induced RPA32 phosphorylation; irinotecan induced pCHK1 (Ser345) [7]: blocks irinotecan induced pCHK1 in a dose- and time-dependent manner; plasma pharmacokinetics in combination [8]: appeared consistent with the individual agents

Q: Which replication velocity ([4]; within 30 minutes of topotecan treatment) does the source give for CC[C@@]1(O)C(=O)OCc2c1cc1n(c2=O)Cc2cc3c(CN(C)C)c(O)ccc3nc2-1 [topotecan] here?
A: significantly reduced replication velocity

Q: What about the “phosphorylation of RPA at S33” value ([6]; DMS114 cells, following exposure to topotecan) of the same compound?
A: rapid phosphorylation of replication protein A (RPA) at S33

Q: And the “plasma pharmacokinetics in combination” value [8]?
A: appeared consistent with the individual agents

Q: And the “responses (proportion of patients)” value [9]?
A: approximately 5%

Q: With CC(C)c1cc(-c2n[nH]c(=O)n2-c2ccc3c(ccn3C)c2)c(O)cc1O [ganetespib] as the compound, how does the “rank of TOP1 inhibitor-drug pair by ExcessHSA” value [2] read?
A: 5
